Measured values reported in article PMC11434422 (2024).

Experiments:
[1] = system: c-MYC-G3 (c-MYC-G3-compDNA1 hybridized to anchorDNA1) (DNA, other) TGGGGAGGGTGGGGAATTTTTTTTTCGTGTATTGCTC; assay: SPR, multi-cycle kinetics, 1:1 fit; details: 150 mM Li+, 10 mM Ca2+; HBS-EP pH 7.4, 10 mM HEPES, 3 mM EDTA, 0.05% P20, 1% DMSO; hemin 10-100 µM
[2] = system: ssDNA (ssDNA-compDNA2 hybridized to anchorDNA2) (DNA, single strand) TGTGTAGTGCGGGTTTTTTTTTTGAGATGCAGATCCTGT; assay: SPR, multi-cycle injections; details: 150 mM Li+, 10 mM Ca2+; HBS-EP pH 7.4, 10 mM HEPES, 3 mM EDTA, 0.05% P20, 1% DMSO; hemin 10-100 µM; highest hemin 100 µM; legend: minimal binding

- KD [1]: 263 ± 3 µM
- binding [2]: no
SMILES: C=CC1=C(C)C2=Cc3c(C=C)c(C)c4[n]3[Fe]([Cl])[n]3c(c(C)c(CCC(=O)O)c3=CC3=NC(=C4)C(C)=C3CCC(=O)O)=CC1=N2
